{"source": "paper PMC12928571", "about": "“Idler Compounds: A Simple Protocol for Openly Sharing Fridge Contents for Cross-Screening” (Journal of Medicinal Chemistry, 2026)", "key": {"[1]": {"system": "E. coli (NCTC 12923) +PMBN", "experiment": "Activity against E. coli in the presence of PMBN (30 μg/mL)", "assay_type": "cell-based, Escherichia coli", "details": "100 μM, active when inhibition >80%"}, "C. albicans (NCPF 3281)": {"system": "C. albicans (NCPF 3281)", "experiment": "Activity against C. albicans, microbroth growth inhibition (OD530)", "assay_type": "cell-based, Candida albicans", "details": "100 μM; active when inhibition >80%"}, "[2]": {"system": "SARS-CoV-2 nonstructural protein 12 (Nsp12)", "details": "from originating SARS-CoV-2 Nsp12 project; cited from earlier work"}, "[3]": {"experiment": "Solubility by forward light-scatter (NEPHELOstar Plus)", "assay_type": "physicochemical", "details": "1% DMSO in DPBS pH 7.1, 37 °C; for solubility (in words): 2 h"}, "Huh7 cells": {"system": "Huh7 cells", "details": "reported after plate MHT-0001 was prepared, reference not printed at the place; cited from earlier work"}, "DENV serotype 2": {"system": "DENV serotype 2", "details": "from originating DENV RdRp project; reference not printed at the place; cited from earlier work"}, "[4]": {"system": "A. baumannii (ATCC 17978) +PMBN", "experiment": "Activity against A. baumannii in the presence of PMBN (30 μg/mL)", "assay_type": "cell-based, Acinetobacter baumannii", "details": "100 μM, active when inhibition >80%"}, "[5]": {"system": "chikungunya virus nsp2 helicase", "details": "from originating chikungunya virus nsp2 helicase project; cited from earlier work"}, "[6]": {"system": "Mycobacterium abscessus (NCTC 14045)", "experiment": "Activity against Mycobacterium abscessus, luciferase reporter strain luminescence", "details": "10 μM; active when inhibition >50%"}, "P. falciparum": {"system": "P. falciparum", "details": "from originating P. falciparum / Open Source Malaria projects; cited from earlier work"}, "S. aureus (ATCC 9144)": {"system": "S. aureus (ATCC 9144)", "experiment": "Activity against S. aureus, microbroth growth inhibition (OD600)", "assay_type": "cell-based, Staphylococcus aureus", "details": "100 μM; active when inhibition >80%"}, "[7]": {"system": "Mycobacterium avium (ATCC15796)", "experiment": "Activity against Mycobacterium avium, luciferase reporter strain luminescence", "details": "10 μM; active when inhibition >50%"}, "Gram-negative strain": {"system": "Gram-negative strain", "experiment": "Activity on a Gram-negative strain without PMBN (strain not given)", "assay_type": "cell-based", "details": "100 μM, strain not named"}}}
{"smiles": "O=S(=O)(Nc1ccc(Oc2ccccc2)cc1)c1cccc(C(F)(F)F)c1", "note": "[EC055-1]", "values": [{"measurement": "activity on E. coli +PMBN (in words)", "setting": "[1]", "value": "narrow–spectrum activity"}]}
{"smiles": "COc1cc2nc(Nc3cc(C)[nH]n3)nc(Nc3cc(C)[nH]n3)c2cc1OC", "note": "[MA20]", "values": [{"measurement": "activity on C. albicans (in words)", "setting": "C. albicans (NCPF 3281)", "value": "selective activity"}]}
{"smiles": "CC1=CC(=O)C=C(C)C1=NOS(=O)(=O)c1ccc(Cl)cc1", "note": "[RA-0001351]", "values": [{"measurement": "potency on Nsp12 (in words)", "setting": "[2]", "value": "potent"}, {"measurement": "solubility (in words)", "setting": "[3]", "value": "good solubility"}]}
{"smiles": "CC1(C)C2CCC1(C)C(OCC(O)CNC1CCCCC1)C2", "note": "(centres unmarked) [RA-0020564]", "values": [{"measurement": "activity on E. coli +PMBN (in words)", "setting": "[1]; listed as well G6", "value": "narrow–spectrum activity"}, {"measurement": "CC50", "setting": "Huh7 cells", "value": 14.5, "unit": "µM"}, {"measurement": "solubility at 2 h", "setting": "[3]; DPBS with 1% DMSO, aqueous buffer, kinetic from dmso stock", "value": "> 100", "unit": "µM"}]}
{"smiles": "Cc1ccc(C)c(N2CCN(C(=O)C3CCN(c4ncnc5c4sc4ncccc45)CC3)CC2)c1", "note": "[RA-0020572]", "values": [{"measurement": "antiviral activity on DENV serotype 2", "setting": "DENV serotype 2", "value": 2.7, "unit": "µM"}]}
{"smiles": "COc1ccc(-c2ccc(CNc3ccnc(S(=O)(=O)F)c3)s2)cc1", "note": "[RA-0020649-01]", "values": [{"measurement": "activity on C. albicans (in words)", "setting": "C. albicans (NCPF 3281)", "value": "selective activity"}]}
{"smiles": "O=C(Nc1ccccc1)C(Cl)C(=O)c1ccccc1", "note": "(centres unmarked) [RA-0020661-01]", "values": [{"measurement": "activity on A. baumannii +PMBN (in words)", "setting": "[4]", "value": "narrow–spectrum activity"}]}
{"smiles": "Oc1ccc(CN2CCN(c3ccccc3F)CC2)c2cccnc12", "note": "[RA-0020681]", "values": [{"measurement": "unwinding or ATPase inhibitory effect (in words)", "setting": "[5]", "value": "no unwinding or ATPase inhibitory effect"}, {"measurement": "solubility (in words)", "setting": "[3]", "value": "poor"}, {"measurement": "activity on C. albicans (in words)", "setting": "C. albicans (NCPF 3281)", "value": "selective activity"}]}
{"smiles": "COc1ccc2c(c1)nc(-c1c[nH]c3cc(N4CCOCC4)ccc13)c1[nH]ccc12", "note": "[WEL2.76]", "values": [{"measurement": "activity on M. abscessus (in words)", "setting": "[6]", "value": "no noticeable effect"}, {"measurement": "antiplasmodial activity / inhibition against P. falciparum (in words)", "setting": "P. falciparum", "value": "promising antiplasmodial activity"}, {"measurement": "activity on E. coli +PMBN (in words)", "setting": "[1]", "value": "strong activity"}, {"measurement": "activity on S. aureus (in words)", "setting": "S. aureus (ATCC 9144)", "value": "strong activity"}, {"measurement": "activity on M. avium (in words)", "setting": "[7]", "value": "no noticeable effect"}, {"measurement": "activity on A. baumannii +PMBN (in words)", "setting": "[4]", "value": "strong activity"}, {"measurement": "solubility (in words)", "setting": "[3]", "value": "poor"}, {"measurement": "activity on C. albicans (in words)", "setting": "C. albicans (NCPF 3281)", "value": "no noticeable effect"}]}
{"smiles": "COc1ccc2c(c1)nc(-c1c[nH]c3ccc(N4CCSCC4)cc13)c1[nH]ccc12", "note": "[WEL2.92a]", "values": [{"measurement": "activity on a Gram-negative strain (in words)", "setting": "Gram-negative strain", "value": "showed activity"}]}
{"smiles": "CC(C)c1cc(Nc2nc(N[C@@H](CO)C3CCCCC3)nc3[nH]ncc23)n[nH]1", "note": "[WYH-9]", "values": [{"measurement": "activity on E. coli +PMBN (in words)", "setting": "[1]", "value": "narrow–spectrum activity"}]}
{"smiles": "Nc1ncnc2cc(-c3cccc(S(N)(=O)=O)c3)sc12", "note": "[YNW5-2]", "values": [{"measurement": "antiplasmodial activity / inhibition against P. falciparum (in words)", "setting": "P. falciparum", "value": "potent and selective inhibition"}, {"measurement": "activity on E. coli +PMBN (in words)", "setting": "[1]", "value": "narrow–spectrum activity"}, {"measurement": "activity on M. avium (in words)", "setting": "[7]", "value": "showed activity"}]}
